Reference: ChEMBL document CHEMBL1133394, “Novel C-ring analogues of 20(S)-camptothecin. Part 3: synthesis and their in vitro cytotoxicity of A-, B- and C-ring analogues” (Bioorg Med Chem Lett, 2000)

What was measured:
HOP-62 = test: Tested in vitro for cytotoxicity against human tumor cell line HOP62 (lung); format: functional
ACHN [1] = test: Tested in vitro for cytotoxicity against human tumor cell line ACHN (renal).; format: functional
OVCAR-8 = test: Tested in vitro for cytotoxicity against human tumor cell line OVCAR8 (ovarian).; format: functional
DU-145 [2] = test: Tested in vitro for cytotoxicity against human tumor cell line DU-145 (prostate); format: functional
SF-268 = test: Tested in vitro for cytotoxicity against human tumor cell line SF-268 (CNS).; format: functional
NCI/ADR-RES = test: Tested in vitro for cytotoxicity against human tumor cell line MCF-7/ADR (breast); format: functional
UACC-62 = test: Tested in vitro for cytotoxicity against human tumor cell line UACC 62 (melanoma); format: functional
Mus musculus [3] = test: (§1) The compound (200 mg/kg) administered intravenously was tested for antitumor activity against NCI-H23 (lung) xenograft model in mice; format: functional
Mus musculus [4] = test: The compound (90 mg/kg) administered intravenously was tested for antitumor activity against A-498 (renal) xenograft model in mice; format: functional
Mus musculus [5] = test: (§2) The compound (90 mg/kg) administered intravenously was tested for antitumor activity against NCI-H23 (lung) xenograft model in mice; format: functional
Mus musculus [6] = test: The compound (134 mg/kg) administered intravenously was tested for antitumor activity against A-498 (renal) xenograft model in mice; format: functional
Mus musculus [7] = test: The compound (134 mg/kg) administered intravenously was tested for antitumor activity against DU-145 (prostate) xenograft model in mice; format: functional, Prostate gland
Mus musculus [8] = test: The compound (200 mg/kg) administered intravenously was tested for antitumor activity against DU-145 (prostate) xenograft model in mice; format: functional, Prostate gland
Mus musculus [9] = test: The compound (90 mg/kg) administered intravenously was tested for antitumor activity against DU-145 (prostate) xenograft model in mice; format: functional, Prostate gland
Mus musculus [10] = test: The compound (200 mg/kg) administered intravenously was tested for antitumor activity against A-498 (renal) xenograft model in mice; format: functional
[11] = tested on: Panel (56 tumour cell lines); test: Tested in vitro for cytotoxicity against 56 human tumor cell lines; format: functional, cell-based
Mus musculus [12] = test: (§3) The compound (134 mg/kg) administered intravenously was tested for antitumor activity against NCI-H23 (lung) xenograft model in mice; format: functional
NCI-H23 [13] = test: as §1; format: functional, Mus musculus
NCI-H23 [14] = test: as §3; format: functional, Mus musculus
NCI-H23 [15] = test: as §2; format: functional, Mus musculus
DU-145 [16] = test: The compound was tested in vitro for cytotoxicity against human tumor cell line DU-145 (prostate); format: functional
ACHN [17] = test: The compound was tested in vitro for cytotoxicity against human tumor cell line ACHN (renal).; format: functional
Mus musculus [18] = test: The compound (2.5 mg/kg) administered intravenously was tested for antitumor activity against DU-145 (prostate) xenograft model in mice; format: functional, Prostate gland
Mus musculus [19] = test: The compound (5 mg/kg) administered intravenously was tested for antitumor activity against A-498 (renal) xenograft model in mice; format: functional
Mus musculus [20] = test: The compound (10 mg/kg) administered intravenously was tested for antitumor activity against A-498 (renal) xenograft model in mice; format: functional
Mus musculus [21] = test: The compound (10 mg/kg) administered intravenously was tested for antitumor activity against DU-145 (prostate) xenograft model in mice; format: functional, Prostate gland
Mus musculus [22] = test: The compound (2.5 mg/kg) administered intravenously was tested for antitumor activity against A-498 (renal) xenograft model in mice; format: functional
NCI-H23 [23] = test: The compound (2.5 mg/kg) administered intravenously was tested for antitumor activity against NCI-H23 (lung) xenograft model in mice; format: functional, Mus musculus
NCI-H23 [24] = test: The compound (10 mg/kg) administered intravenously was tested for antitumor activity against NCI-H23 (lung) xenograft model in mice; format: functional, Mus musculus
NCI-H23 [25] = test: The compound (5 mg/kg) administered intravenously was tested for antitumor activity against NCI-H23 (lung) xenograft model in mice; format: functional, Mus musculus
Mus musculus [26] = test: The compound (5 mg/kg) administered intravenously was tested for antitumor activity against DU-145 (prostate) xenograft model in mice; format: functional, Prostate gland

| Structure (SMILES) | GI50 (HOP-62) [nM] | GI50 (ACHN [1]) [nM] | GI50 (OVCAR-8) [nM] | GI50 (DU-145 [2]) [nM] | GI50 (SF-268) [nM] | GI50 (NCI/ADR-RES) [nM] | GI50 (UACC-62) [nM] | IC50 [11] [nM] | also measured |
| --- | --- | --- | --- | --- | --- | --- | --- | --- | --- |
| CCc1c2c(nc3ccc(O)cc13)-c1cc3c(c(=O)n1C2OCCOC)COC(=O)[C@]3(O)CC (some centres undefined) | 20000 | 600 | 100 | 550 | > 30000 | 200 | 600 |  |  |
| CC[C@@]1(O)C(=O)OCc2c1cc1n(c2=O)C(OCCF)c2cc3c([N+](=O)[O-])cccc3nc2-1 (some centres undefined) | 360 | 250 | 740 | 630 | 310 | 200 | 400 |  |  |
| CCOC1c2cc3c(O)cccc3nc2-c2cc3c(c(=O)n21)COC(=O)[C@]3(O)CC (some centres undefined) |  |  |  |  |  |  |  | 200 | T-C/C (Mus musculus [3]): 12%; T-C/C (Mus musculus [4]): 23%; T-C/C (Mus musculus [5]): 8%; T-C/C (Mus musculus [6]): 8%; T-C/C (Mus musculus [7]): 27%; T-C/C (Mus musculus [8]): 33%; T-C/C (Mus musculus [9]): 9%; T-C/C (Mus musculus [10]): 6%; T-C/C (Mus musculus [12]): 15% |
| CCc1c2c(nc3ccc(O)cc13)-c1cc3c(c(=O)n1C2OCCF)COC(=O)[C@]3(O)CC (some centres undefined) | 25000 | 8000 | 500 | 1000 | > 30000 | 100 | 1000 |  |  |
| CC[C@@]1(O)C(=O)OCc2c1cc1n(c2=O)C(OCC(F)(F)F)c2cc3cc(O)ccc3nc2-1 (some centres undefined) | 60 | 100 | 260 | 100 | 30 | 200 | 100 |  | T-C/C (NCI-H23 [13]): 58%; T-C/C (NCI-H23 [14]): 58%; T-C/C (NCI-H23 [15]): 12%; T-C/C (Mus musculus [4]): 46%; T-C/C (Mus musculus [6]): 46%; T-C/C (Mus musculus [7]): 4%; T-C/C (Mus musculus [8]): 21%; T-C/C (Mus musculus [9]): 8%; T-C/C (Mus musculus [10]): 27% |
| CCOC1c2c(nc3ccc(O)cc3c2CC)-c2cc3c(c(=O)n21)COC(=O)[C@]3(O)CC (some centres undefined) |  |  |  |  |  |  |  | 5000 |  |
| CCc1c2c(nc3ccc(O)cc13)-c1cc3c(c(=O)n1C2OCC(F)(F)F)COC(=O)[C@]3(O)CC (some centres undefined) | 2000 | 400 | 500 | 1000 | 2000 | 400 | 70 |  |  |
| CC[C@@]1(O)C(=O)OCc2c1cc1n(c2=O)C(OCCOC)c2cc3c([N+](=O)[O-])cccc3nc2-1 (some centres undefined) | 400 |  | 970 |  | 1000 |  | 470 |  | GI50 (DU-145 [16]): 440 nM; GI50 (ACHN [17]): 430 nM |
| CC[C@@]1(O)C(=O)OCc2c1cc1n(c2=O)Cc2cc3ccccc3nc2-1 [CAMPTOTHECIN] |  |  |  |  |  |  |  | 40 |  |
| CCc1c2c(nc3cccc(OC)c13)-c1cc3c(c(=O)n1C2OCCF)COC(=O)[C@]3(O)CC (some centres undefined) | 1220 | 1060 | 1920 | 790 | 1890 | 1990 | 2020 |  |  |
| CCOC1c2c(nc3cccc(OC)c3c2CC)-c2cc3c(c(=O)n21)COC(=O)[C@]3(O)CC (some centres undefined) |  |  |  |  |  |  |  | 5370 |  |
| CCOC1c2cc3cc(O)ccc3nc2-c2cc3c(c(=O)n21)COC(=O)[C@]3(O)CC (some centres undefined) |  |  |  |  |  |  |  | 2880 |  |
| CCc1c2c(nc3cccc(OC)c13)-c1cc3c(c(=O)n1C2OCCOC)COC(=O)[C@]3(O)CC (some centres undefined) | 660 | 520 | 850 | 1140 | 590 | 510 | 2540 |  |  |
| CCOC1c2cc3c([N+](=O)[O-])cccc3nc2-c2cc3c(c(=O)n21)COC(=O)[C@]3(O)CC (some centres undefined) |  |  |  |  |  |  |  | 27500 |  |
| CC[C@@]1(O)C(=O)OCc2c1cc1n(c2=O)C(OCCO)c2cc3c([N+](=O)[O-])cccc3nc2-1 (some centres undefined) | 2450 | 3360 | 7140 | 4130 | 4660 |  | 2460 |  |  |
| CC[C@@]1(O)C(=O)OCc2c1cc1n(c2=O)C(OCCF)c2cc3cc(O)ccc3nc2-1 (some centres undefined) | 10000 | 500 | 4500 | 250 | 20000 | 4000 | 10000 |  |  |
| CC[C@@]1(O)C(=O)OCc2c1cc1n(c2=O)Cc2cc3c(CN(C)C)c(O)ccc3nc2-1 [TOPOTECAN] | 50 | 40 | 200 | 40 | 80 | 70 | 30 | 160 | T-C/C (Mus musculus [18]): 83%; T-C/C (Mus musculus [19]): 67%; T-C/C (Mus musculus [20]): 47%; T-C/C (Mus musculus [21]): 339%; T-C/C (Mus musculus [22]): 11%; T-C/C (NCI-H23 [23]): 10%; T-C/C (NCI-H23 [24]): 60%; T-C/C (NCI-H23 [25]): 6%; T-C/C (Mus musculus [26]): 35% |
| CCOC1c2cc3cccc([N+](=O)[O-])c3nc2-c2cc3c(c(=O)n21)COC(=O)[C@]3(O)CC (some centres undefined) |  |  |  |  |  |  |  | > 30000 |  |
| CC[C@@]1(O)C(=O)OCc2c1cc1n(c2=O)C(OCCOC)c2cc3cc(O)ccc3nc2-1 (some centres undefined) | 4000 | 1200 | 4500 | 680 | 5000 | < 10 | 520 |  |  |
| CCc1c2c(nc3cccc(OC)c13)-c1cc3c(c(=O)n1C2OCC(F)(F)F)COC(=O)[C@]3(O)CC (some centres undefined) | 1580 | 2830 | 2630 | 3900 | 2130 | 1840 | 4680 |  |  |
| CC[C@@]1(O)C(=O)OCc2c1cc1n(c2=O)C(OCC(F)(F)F)c2cc3c([N+](=O)[O-])cccc3nc2-1 (some centres undefined) | 500 | 20 | 130 | 60 | 90 | 70 | 160 |  |  |
| CCc1c2c(nc3cccc(OC)c13)-c1cc3c(c(=O)n1C2OCCO)COC(=O)[C@]3(O)CC (some centres undefined) | 6470 | 3820 | 8400 | 5020 | 1100 | 5530 |  |  |  |
| CC[C@@]1(O)C(=O)OCc2c1cc1n(c2=O)C(OCCO)c2cc3cc(O)ccc3nc2-1 (some centres undefined) | 2440 | 3400 | 2520 | 3260 | 2100 |  | 2120 |  |  |
| CCOC1c2c(nc3cccc(O)c3c2CC)-c2cc3c(c(=O)n21)COC(=O)[C@]3(O)CC (some centres undefined) |  |  |  |  |  |  |  | 4670 |  |
